The source of these data is ChEMBL document CHEMBL1138676, “Liver-selective glucocorticoid antagonists: a novel treatment for type 2 diabetes” (J Med Chem, 2004).

For one assay, the target named is T1, Androgen receptor (Homo sapiens, UniProt P10275).
T1 sequence (P10275 whole entry): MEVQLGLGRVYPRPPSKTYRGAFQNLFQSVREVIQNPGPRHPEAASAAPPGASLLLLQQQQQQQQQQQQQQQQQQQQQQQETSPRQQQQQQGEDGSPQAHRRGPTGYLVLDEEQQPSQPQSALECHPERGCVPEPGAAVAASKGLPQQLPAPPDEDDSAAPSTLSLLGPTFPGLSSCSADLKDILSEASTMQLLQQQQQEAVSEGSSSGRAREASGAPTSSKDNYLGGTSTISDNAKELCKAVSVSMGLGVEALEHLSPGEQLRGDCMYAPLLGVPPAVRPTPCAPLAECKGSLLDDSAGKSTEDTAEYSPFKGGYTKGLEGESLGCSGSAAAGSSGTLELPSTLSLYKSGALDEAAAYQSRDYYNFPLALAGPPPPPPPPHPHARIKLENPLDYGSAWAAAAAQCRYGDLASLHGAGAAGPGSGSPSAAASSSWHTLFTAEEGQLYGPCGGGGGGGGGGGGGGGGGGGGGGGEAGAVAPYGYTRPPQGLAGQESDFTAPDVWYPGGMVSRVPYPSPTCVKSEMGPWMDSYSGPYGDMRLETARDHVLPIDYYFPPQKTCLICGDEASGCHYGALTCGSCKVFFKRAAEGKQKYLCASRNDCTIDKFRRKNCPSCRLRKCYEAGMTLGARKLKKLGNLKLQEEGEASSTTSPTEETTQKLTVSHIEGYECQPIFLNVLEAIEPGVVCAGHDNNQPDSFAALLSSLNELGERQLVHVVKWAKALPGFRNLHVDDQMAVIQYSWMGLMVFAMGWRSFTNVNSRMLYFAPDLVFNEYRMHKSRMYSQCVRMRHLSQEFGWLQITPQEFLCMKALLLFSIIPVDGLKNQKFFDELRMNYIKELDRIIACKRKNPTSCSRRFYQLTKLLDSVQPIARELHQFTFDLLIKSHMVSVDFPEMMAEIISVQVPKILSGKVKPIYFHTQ

The target in a further assay is Estrogen receptor beta (Homo sapiens, UniProt Q92731). The assay is described as follows: Inhibition of human Estrogen receptor beta.
Chain of Estrogen receptor beta (Q92731 whole entry): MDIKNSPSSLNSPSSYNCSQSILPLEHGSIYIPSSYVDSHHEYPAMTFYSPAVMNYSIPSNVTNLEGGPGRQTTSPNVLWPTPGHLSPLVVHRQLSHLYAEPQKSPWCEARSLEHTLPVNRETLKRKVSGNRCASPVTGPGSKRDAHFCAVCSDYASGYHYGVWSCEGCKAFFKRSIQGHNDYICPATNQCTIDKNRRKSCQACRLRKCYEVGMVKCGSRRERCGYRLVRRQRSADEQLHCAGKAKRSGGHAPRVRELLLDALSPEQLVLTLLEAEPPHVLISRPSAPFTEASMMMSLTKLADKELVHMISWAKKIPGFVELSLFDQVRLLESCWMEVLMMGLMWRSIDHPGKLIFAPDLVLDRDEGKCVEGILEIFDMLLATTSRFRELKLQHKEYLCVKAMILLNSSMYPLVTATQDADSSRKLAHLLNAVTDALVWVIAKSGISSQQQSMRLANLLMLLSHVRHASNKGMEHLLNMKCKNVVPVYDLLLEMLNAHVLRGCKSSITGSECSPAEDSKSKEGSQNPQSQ
The target in assay [1] is T2, Thyroid hormone receptor alpha (Homo sapiens, UniProt P10827).
T2 sequence (P10827 whole entry): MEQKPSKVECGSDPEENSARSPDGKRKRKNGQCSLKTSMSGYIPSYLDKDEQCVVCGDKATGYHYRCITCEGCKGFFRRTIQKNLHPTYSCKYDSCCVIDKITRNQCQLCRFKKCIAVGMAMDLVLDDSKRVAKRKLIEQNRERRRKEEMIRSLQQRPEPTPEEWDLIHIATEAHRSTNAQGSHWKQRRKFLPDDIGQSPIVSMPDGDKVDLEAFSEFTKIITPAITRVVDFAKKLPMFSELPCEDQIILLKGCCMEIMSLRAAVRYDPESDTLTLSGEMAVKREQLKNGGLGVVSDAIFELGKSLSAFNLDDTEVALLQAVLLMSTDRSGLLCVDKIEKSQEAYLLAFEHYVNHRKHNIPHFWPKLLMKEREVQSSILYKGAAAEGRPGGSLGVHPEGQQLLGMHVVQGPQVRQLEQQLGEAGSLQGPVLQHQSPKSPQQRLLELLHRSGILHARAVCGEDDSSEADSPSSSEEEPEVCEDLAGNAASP
In words: Inhibition of human Thyroid hormone receptor alpha.

The next assay has as its target T3, Estrogen receptor (Homo sapiens, UniProt P03372).
T3 sequence (P03372 whole entry): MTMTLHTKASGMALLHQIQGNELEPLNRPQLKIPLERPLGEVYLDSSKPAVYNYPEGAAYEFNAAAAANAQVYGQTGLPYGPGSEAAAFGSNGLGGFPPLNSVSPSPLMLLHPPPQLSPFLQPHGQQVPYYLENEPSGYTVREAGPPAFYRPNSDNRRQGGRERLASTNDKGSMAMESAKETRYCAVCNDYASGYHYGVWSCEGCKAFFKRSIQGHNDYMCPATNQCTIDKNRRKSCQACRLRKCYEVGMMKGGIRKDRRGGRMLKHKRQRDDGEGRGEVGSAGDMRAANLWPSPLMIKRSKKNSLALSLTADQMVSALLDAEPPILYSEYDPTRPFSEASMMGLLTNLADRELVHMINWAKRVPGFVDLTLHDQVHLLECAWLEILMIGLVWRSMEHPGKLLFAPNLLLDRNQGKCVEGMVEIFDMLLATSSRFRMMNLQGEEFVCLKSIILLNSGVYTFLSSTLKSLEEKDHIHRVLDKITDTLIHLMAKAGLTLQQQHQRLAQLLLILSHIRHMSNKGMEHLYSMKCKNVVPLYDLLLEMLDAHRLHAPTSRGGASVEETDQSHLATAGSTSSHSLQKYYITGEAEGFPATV
The assay is described as follows: Inhibition of human Estrogen receptor alpha.

Assay [2] has as its target T4, Thyroid hormone receptor beta (Homo sapiens, UniProt P10828).
T4 sequence (P10828 whole entry): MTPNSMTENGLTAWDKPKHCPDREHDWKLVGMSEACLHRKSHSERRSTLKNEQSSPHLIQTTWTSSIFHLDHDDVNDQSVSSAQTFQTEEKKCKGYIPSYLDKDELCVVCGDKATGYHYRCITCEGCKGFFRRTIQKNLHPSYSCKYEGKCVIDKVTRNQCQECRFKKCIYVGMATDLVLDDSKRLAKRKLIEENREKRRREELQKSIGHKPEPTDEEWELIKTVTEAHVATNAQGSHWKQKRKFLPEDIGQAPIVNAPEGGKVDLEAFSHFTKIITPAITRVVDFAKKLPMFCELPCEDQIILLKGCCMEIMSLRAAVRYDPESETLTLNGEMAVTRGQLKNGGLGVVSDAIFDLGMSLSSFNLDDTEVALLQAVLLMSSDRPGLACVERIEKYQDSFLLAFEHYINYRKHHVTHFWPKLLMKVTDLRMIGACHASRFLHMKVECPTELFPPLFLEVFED
In words: Inhibition of human Thyroid hormone receptor beta.

Broadly, the Ki is a measure of affinity in units of concentration, obtained from inhibition or displacement. A lower Ki goes with tighter binding.

Description for Androgen receptor: Inhibition of human androgen receptor

On to `C#C[C@]1(O)CC[C@H]2[C@@H]3CCC4=CC(=O)CCC4=C3[C@@H](c3ccc(N(C)CCCOC4CC[C@@]5(C)[C@@H](C4)C[C@@H](O)[C@@H]4[C@@H]5C[C@H](O)[C@]5(C)[C@@H]([C@H](C)CCC(=O)O)CC[C@@H]45)cc3)C[C@@]21C` (stereo not given in full), for which the Ki on Androgen receptor is 4.6 nM; on Estrogen receptor beta it was 13 nM; in assay [1], greater than 1250 nM; at Estrogen receptor, 8.8 nM; in assay [2] it was 1900 nM.
For the compound `C#C[C@]1(O)CC[C@H]2[C@@H]3CCC4=CC(=O)CCC4=C3[C@@H](c3ccc(N(C)C(=O)CC[C@H](NC(=O)CC[C@@H](C)[C@H]4CC[C@H]5[C@@H]6[C@H](O)C[C@@H]7C[C@H](O)CC[C@]7(C)[C@H]6C[C@H](O)[C@]45C)C(=O)O)cc3)C[C@@]21C`, the inhibitory constant (Ki) was 34 nM at Androgen receptor; 240 nM at Estrogen receptor beta; 1200 nM in assay [1]; 72 nM at Estrogen receptor; greater than 2250 nM in assay [2].
The corresponding values for `C#C[C@]1(O)CC[C@H]2[C@@H]3CCC4=CC(=O)CCC4=C3[C@@H](c3ccc(N(C)CCNC(=O)OC4CC[C@@]5(C)[C@@H](C4)C[C@@H](O)[C@@H]4[C@@H]5C[C@H](O)[C@]5(C)[C@@H]([C@H](C)CCC(=O)O)CC[C@@H]45)cc3)C[C@@]21C` (stereo not given in full) are 6.2 nM, greater than 750 nM, greater than 1250 nM, greater than 200 nM and greater than 2250 nM.
For `C#C[C@]1(O)CC[C@H]2[C@@H]3CCC4=CC(=O)CCC4=C3[C@@H](c3ccc(N(C)C(C)=O)cc3)C[C@@]21C`, in that order: 8.9 nM, 570 nM, 790 nM, 34 nM and greater than 2250 nM.
For `C#C[C@]1(O)CC[C@H]2[C@@H]3CCC4=CC(=O)CCC4=C3[C@@H](c3ccc(N(C)CCOCCO[C@H]4CC[C@@]5(C)[C@@H](C4)C[C@@H](O)[C@@H]4[C@@H]5C[C@H](O)[C@]5(C)[C@@H]([C@H](C)CCC(=O)O)CC[C@@H]45)cc3)C[C@@]21C`, in that order: 3.3 nM, 51 nM, greater than 1250 nM, 14 nM and greater than 2250 nM.
In the case of `C#C[C@]1(O)CC[C@H]2[C@@H]3CCC4=CC(=O)CCC4=C3[C@@H](c3ccc(N(C)CCOC4CC[C@@]5(C)[C@@H](C4)C[C@@H](O)[C@@H]4[C@@H]5C[C@H](O)[C@]5(C)[C@@H]([C@H](C)CCC(=O)O)CC[C@@H]45)cc3)C[C@@]21C` (stereo in doubt; form 1), the Ki on Androgen receptor was 8.9 nM; on Estrogen receptor beta it was 89 nM; in assay [1] it was greater than 1250 nM; at Estrogen receptor, 11 nM; in assay [2], greater than 2250 nM.
The corresponding values for `C#C[C@]1(O)CC[C@H]2[C@@H]3CCC4=CC(=O)CCC4=C3[C@@H](c3ccc(N(C)CCNC(=O)N(C)C4CC[C@@]5(C)[C@@H](C4)C[C@@H](O)[C@@H]4[C@@H]5C[C@H](O)[C@]5(C)[C@@H]([C@H](C)CCC(=O)O)CC[C@@H]45)cc3)C[C@@]21C` (stereo not given in full) are 16 nM, 190 nM, greater than 1250 nM, 140 nM and greater than 2250 nM.
